Results from PMC10826971, “Evaluating protein cross-linking as a therapeutic strategy to stabilize SOD1 variants in a mouse model of familial ALS” (PLOS Biology, 2024).
“Also recorded” adds a separate entry of the source.

How the values were obtained:
[1] = system: wild-type SOD1, SOD1^A4V, SOD1^G93A, SOD1^H46R, and SOD1^G85R; experiment: Mass spectrometry assay for intact protein cross-linking in vitro; assay type: binding, human
Procedure: We employed a mass spectrometry (MS) assay for intact protein cross-linking. In this assay, any non-covalent (i.e., native) dimer is dissociated by a combination of acidic, organic media and MS source conditions.
Wild-type SOD1, SOD1^A4V, SOD1^G93A, SOD1^H46R, and SOD1^G85R stock solutions were diluted to 40 μm in 10 mM ammonium acetate (pH 7.4). […] Prior to infusion, samples were diluted to 1 μm in 50:50 acetonitrile:water, with 0.1% formic acid. During analysis, 32 scans were acquired in positive mode and averaged. Funnel 1 and skimmer 1 were kept around 150 V and 20 V, respectively, and funnel RF amplitude was held at 60.0 Vpp.

B6 G93A mice = experiment: Survival study, congenic B6 G93A/YFP mice, S-XL6 50 mg/kg SC on weekdays from day 108; assay type: in vivo, mouse; parameters: Dosed remained: unit not given here
Excerpt: Two fALS lines were used to assess survival in genetic backgrounds with different disease severity. […] Dose and dose regimen were estimated from the blood PK/PD profile and BBB penetration described above. A subcutaneous (SC) route of administration was chosen because in our hands it results in more precise delivery. […] In both studies, mice were gender and littermate matched and non ALS-related deaths were excluded. We are currently developing the methods necessary for quantifying copy number and cannot rule out reduced SOD1 expression as having contributed to the survival benefit in treated B6 G93A mice.
The first line was derived by crossing (over >10 generations) congenic fALS “B6 G93A mice” (B6.Cg-Tg(SOD1*G93A)1Gur/J, Stock No. 004435, The Jackson Laboratory, Bar Harbor, Maine, USA) with “YFP-16 mice” [50] (B6.Cg-Tg(Thy1-YFP)16Jrs/J, Stock No. 003709, The Jackson Laboratory, Bar Harbor, Maine, USA). This line maintains the C57BL/6J genetic background and expresses YFP in motor and sensory neurons to enable cellular-level molecular profiling in future studies. The second line is the standard “Hybrid B6SJL G93A mice” (B6SJL-Tg(SOD1*G93A)1Gur/J Stock No. 002726, The Jackson Laboratory, Bar Harbor, Maine, USA). Methods for survival studies have been described and followed the conventions for optimal trial design with fALS mice. Mice were tested for difference in: (1) disease onset (at least a 20% decrease in grip strength and open-field motor performance, which we expect to correlate with change in weight); (2) disease end-stage (disease score, e.g., loss of righting reflex); and (3) weight. The hybrid line was additionally tested for differences in forelimb and hindlimb grip strength.

## [O-][S+]1CCCCS1 (stereo not drawn) [S-XL6, 1,2-dithiane-1-oxide]
[1]
  dead-end modifications of SOD1: not observed
[1]; denaturing MS conditions
  conversion of SOD1 monomer to cross-linked dimer: full conversion of monomer to dimer
B6 G93A mice; 50 mg/kg SC from day 108
  survival benefit: modest survival benefit; also recorded: modest survival improvement
B6 G93A mice; SC dosing
  clinical signs immediately after dosing: lethargy and shaking that subsided after 20 min
B6 G93A mice; day 0
  Dosed remained: 100
B6 G93A mice; day 125
  Dosed remained: 100
B6 G93A mice; day 125.999
  Dosed remained: 100
B6 G93A mice; day 127.999
  Dosed remained: 100
B6 G93A mice; day 128
  Dosed remained: 100
B6 G93A mice; day 128.999
  Dosed remained: 100
B6 G93A mice; day 129
  Dosed remained: 100
B6 G93A mice; day 129.999
  Dosed remained: 100
B6 G93A mice; day 130
  Dosed remained: 100
B6 G93A mice; day 130.999
  Dosed remained: 100
B6 G93A mice; day 131
  Dosed remained: 100
B6 G93A mice; day 131.999
  Dosed remained: 100
B6 G93A mice; day 132
  Dosed remained: 100
B6 G93A mice; day 132.999
  Dosed remained: 100
B6 G93A mice; day 133
  Dosed remained: 100
B6 G93A mice; day 133.999
  Dosed remained: 100
B6 G93A mice; day 134
  Dosed remained: 100
B6 G93A mice; day 134.999
  Dosed remained: 100
B6 G93A mice; day 135
  Dosed remained: 100
B6 G93A mice; day 135.999
  Dosed remained: 100
B6 G93A mice; day 136
  Dosed remained: 100
B6 G93A mice; day 136.999
  Dosed remained: 100
B6 G93A mice; day 137
  Dosed remained: 100
B6 G93A mice; day 137.999
  Dosed remained: 100
B6 G93A mice; day 138
  Dosed remained: 100
B6 G93A mice; day 138.999
  Dosed remained: 100
B6 G93A mice; day 139
  Dosed remained: 100
B6 G93A mice; day 139.999
  Dosed remained: 100
B6 G93A mice; day 140
  Dosed remained: 100
B6 G93A mice; day 140.999
  Dosed remained: 100
B6 G93A mice; day 141
  Dosed remained: 100
B6 G93A mice; day 141.999
  Dosed remained: 100
B6 G93A mice; day 142
  Dosed remained: 100
B6 G93A mice; day 142.999
  Dosed remained: 100
B6 G93A mice; day 143
  Dosed remained: 100
B6 G93A mice; day 143.999
  Dosed remained: 100
B6 G93A mice; day 144
  Dosed remained: 100
B6 G93A mice; day 144.999
  Dosed remained: 100
B6 G93A mice; day 145
  Dosed remained: 100
B6 G93A mice; day 145.999
  Dosed remained: 100
B6 G93A mice; day 146
  Dosed remained: 100
B6 G93A mice; day 146.999
  Dosed remained: 100
B6 G93A mice; day 147
  Dosed remained: 100
B6 G93A mice; day 147.999
  Dosed remained: 100
B6 G93A mice; day 148
  Dosed remained: 100
B6 G93A mice; day 148.999
  Dosed remained: 100
B6 G93A mice; day 149
  Dosed remained: 100
B6 G93A mice; day 149.999
  Dosed remained: 100
B6 G93A mice; day 150
  Dosed remained: 100
B6 G93A mice; day 150.999
  Dosed remained: 100
B6 G93A mice; day 151
  Dosed remained: 100
B6 G93A mice; day 151.999
  Dosed remained: 100
B6 G93A mice; day 152
  Dosed remained: 100
B6 G93A mice; day 152.999
  Dosed remained: 100
B6 G93A mice; day 153
  Dosed remained: 100
B6 G93A mice; day 153.999
  Dosed remained: 100
B6 G93A mice; day 154
  Dosed remained: 100
B6 G93A mice; day 154.999
  Dosed remained: 100
B6 G93A mice; day 155
  Dosed remained: 100
B6 G93A mice; day 155.999
  Dosed remained: 100
B6 G93A mice; day 156
  Dosed remained: 100
B6 G93A mice; day 156.999
  Dosed remained: 100
B6 G93A mice; day 157
  Dosed remained: 70
B6 G93A mice; day 172.999
  Dosed remained: 30
B6 G93A mice; day 173
  Dosed remained: 30
B6 G93A mice; day 173.999
  Dosed remained: 30
B6 G93A mice; day 174
  Dosed remained: 30
B6 G93A mice; day 174.999
  Dosed remained: 30
B6 G93A mice; day 175
  Dosed remained: 30
B6 G93A mice; day 175.999
  Dosed remained: 30
B6 G93A mice; day 176
  Dosed remained: 30
B6 G93A mice; day 176.999
  Dosed remained: 30
B6 G93A mice; day 177
  Dosed remained: 30
B6 G93A mice; day 177.999
  Dosed remained: 30
B6 G93A mice; day 178
  Dosed remained: 20
B6 G93A mice; day 178.999
  Dosed remained: 20
B6 G93A mice; day 179
  Dosed remained: 20
B6 G93A mice; day 179.999
  Dosed remained: 20
B6 G93A mice; day 180
  Dosed remained: 20
B6 G93A mice; day 180.999
  Dosed remained: 20
B6 G93A mice; day 181
  Dosed remained: 20
B6 G93A mice; day 181.999
  Dosed remained: 20
B6 G93A mice; day 182
  Dosed remained: 20
B6 G93A mice; day 182.999
  Dosed remained: 20
B6 G93A mice; day 183
  Dosed remained: 20
B6 G93A mice; day 183.999
  Dosed remained: 20
B6 G93A mice; day 184
  Dosed remained: 20
B6 G93A mice; day 184.999
  Dosed remained: 20
B6 G93A mice; day 185
  Dosed remained: 10
B6 G93A mice; day 185.999
  Dosed remained: 10
B6 G93A mice; day 186
  Dosed remained: 10
B6 G93A mice; day 186.999
  Dosed remained: 10
B6 G93A mice; day 187
  Dosed remained: 10
B6 G93A mice; day 187.999
  Dosed remained: 10
B6 G93A mice; day 188
  Dosed remained: 10
B6 G93A mice; day 188.999
  Dosed remained: 10
B6 G93A mice; day 189
  Dosed remained: 10
B6 G93A mice; day 189.999
  Dosed remained: 10
B6 G93A mice; day 190
  Dosed remained: 0
B6 G93A mice; day 190.999
  Dosed remained: 0
B6 G93A mice; dosed, mean +/− STD, control 153 +/− 15 days
  survival: 169 ± 11 days
